{"source": "patent US8846653B2", "about": "“Delta-tocotrienol treatment and prevention of pancreatic cancer” (University of South Florida, priority 2006, dated 2014)", "key": {"MIA PaCa2 cells": {"tested_on": "MIA PaCa2 cells", "assay": "Proliferation by MTT, increasing concentrations of δ-tocotrienol", "type": "cell-based, human", "details": "MIA PaCa2, at 24 hours; read-out: IC50 (inhibition of proliferation, MTT)", "protocol": "FIG. 22 is a graph wherein MIA PaCa2 pancreatic cancer cells (3×10^3) were plated in 96 well plates and treated the following day with δ-tocotrienol. Proliferation was assessed by MTT at 24 hour intervals. […] HPDE 6C7 cells were also treated with increasing concentrations of δ-tocotrienol for 24 hours.\nMIA PaCa2, SW1990, BXPC3, and HPDE 6C7 cells (3×10^3) were cultured as described in the Examples above, in 96-well plates and treated the following day with increasing concentrations of δ-tocotrienol."}, "[1]": {"tested_on": "MIA PaCa-2 cells (pZWL vector and myrAKT)", "assay": "Cell death (trypan blue) in vector and myrAKT MIA PaCa-2 cells", "type": "cell-based, human", "details": "MIA PaCa-2 vector vs myr-AKT cells, 24 hours, compared to vehicle", "protocol": "FIG. 12 is a graph wherein MIA PaCa-2 cells (pZWL vector and myrAKT) were treated without serum vehicle or δ-tocotrienol (50 μM) for 24 hours, with and without a 10-hour caspase 8/3 inhibitor pretreatment. Cells were also treated with TRAIL as a positive control. Cells were then harvested, fixed, permeablized and stained with trypan blue.\nTo further identify the role of AKT in the apoptotic pathways noted in Example 2, functional overexpression of CA-AKT was analyzed in Mia-PaCa2 pancreatic cancer cells. MIA PaCa-2 cells were treated with pZWL vector and myrAKT, a retroviral vector encoding myristoylated AKT, with or without serum, vehicle, or δ-tocotrienol (40 or 50 μM) for 24 hours, with and without a 10-hour caspase 8 inhibitor pretreatment. Cells were also treated with TRAIL as a positive control. Cells were then harvested, fixed, permeablized and stained with trypan blue.\nThe myristoylated AKT rescued δ-tocotrienol suppression PI3K-AKT signaling. The MiaPaCa-2 parental cell lines were stably transfected using constitutively active myristoylated AKT in a pWZL vector construct to generate MiaPaCa-2AKT cells. […] Lastly, pretreatment with caspase 3, 8 and 9 inhibitors rescued tocotrienol induced cell death."}}, "data": [{"smiles": "CC(C)=CCC/C(C)=C/CC/C(C)=C/CC[C@]1(C)CCc2cc(O)cc(C)c2O1", "note": "[T3 delta, delta tocotrienol]", "values": [{"measurement": "IC50", "setting": "MIA PaCa2 cells", "value": "20 to 25", "unit": "µM"}, {"measurement": "cell death", "setting": "[1]", "value": "induced more cell death in the vector cells than the myr-AKT cells"}]}]}
